Results reported in ChEMBL document CHEMBL6109087, “Design and synthesis of azole derivatives of echinocystic acid as α-glucosidase inhibitors with hypoglycemic activity” (Eur J Med Chem, 2025).
The source made the active and inactive calls. No cut-off for these calls is given here.

Tests used:
Alpha-glucosidase [1] = biological target: T1, Alpha-glucosidase (Saccharomyces cerevisiae S288c, UniProt P53341+P38158+P07265); assay: Inhibition of alpha-glucosidase using 4-Nitrophenyl-[…]-D-glucopyranoside (pNPG) as substrate; format: protein assay
[2] = biological target: Alpha-glucosidase (Saccharomyces cerevisiae S288c) (UniProt P53341+P38158+P07265); assay: Inhibition of alpha-glucosidase using 4-Nitrophenyl-[…]-D-glucopyranoside (pNPG) as substrate assessed as inhibition rate at 30 uM relative control; format: protein assay
[3] = tested on: alpha-glucosidase (unknown origin); assay: Selectivity index, ratio of CC50 for Cytotoxicity against human LO2 cells to IC50 for alpha-glucosidase (unknown origin); format: toxicity, cell-based, L02; conditions: read-out: Selectivity Index
[4] = Cytotoxicity against human LO2 cells assessed as cell viability measured after 24 hrs by MTT assay; format: toxicity, cell-based, L02
Alpha-glucosidase [5] = biological target: T1, Alpha-glucosidase; assay: Binding affinity to alpha-glucosidase assessed as inhibition constant; format: protein assay
Alpha-glucosidase [6] = biological target: T1, Alpha-glucosidase; assay: Inhibition of alpha-glucosidase; format: protein assay
Mus musculus = assay: Reduction in blood glucose concentration in male C57BL/6J mouse assessed as peak blood glucose and glucose AUC at 100 mg/kg preadministered for 30 mins via gavage followed by treated 2 g/Kg of sucrose and measured up to 120 mins post sucrose challenge by sucrose loading test; format: functional, organism-based; conditions: time 150.0 min
Alpha-glucosidase [7] = biological target: T1, Alpha-glucosidase; assay: Inhibition of alpha-glucosidase using P-nitro phenyl-alpha-D-glucopyranoside as substrate assessed as substrate hydrolysis; format: protein assay

IC50 (Alpha-glucosidase [1]) | inhibition [2] | Compound | other results
28.69 µM | 47.7% | CC1(C)CC[C@]2(C(=O)OCCn3ncn(-c4ccc(Cl)cc4)c3=O)[C@H](O)C[C@]3(C)C(=CC[C@@H]4[C@@]5(C)CC[C@H](O)C(C)(C)[C@@H]5CC[C@]43C)[C@@H]2C1 | 
> 30 µM | 46.1% | CC1(C)CC[C@]2(C(=O)OCCn3ncn(-c4ccccc4)c3=O)[C@H](O)C[C@]3(C)C(=CC[C@@H]4[C@@]5(C)CC[C@H](O)C(C)(C)[C@@H]5CC[C@]43C)[C@@H]2C1 | 
3.42 µM | 80.3% | CC1(C)CC[C@]2(C(=O)OCCn3ncn(-c4ccc(Cl)c(Cl)c4)c3=O)[C@H](O)C[C@]3(C)C(=CC[C@@H]4[C@@]5(C)CC[C@H](O)C(C)(C)[C@@H]5CC[C@]43C)[C@@H]2C1 | selectivity ratio [3]: 19.5; CC50 at 24 h [4]: 66.8 µM
> 30 µM | 10.5% | CC1(C)CC[C@]2(C(=O)OCc3nc(-c4ccc(Cn5cncn5)cc4)no3)[C@H](O)C[C@]3(C)C(=CC[C@@H]4[C@@]5(C)CC[C@H](O)C(C)(C)[C@@H]5CC[C@]43C)[C@@H]2C1 | 
16.01 µM | 64.6% | CC1(C)CC[C@]2(C(=O)OCc3nc(-c4ccc(F)cc4)no3)[C@H](O)C[C@]3(C)C(=CC[C@@H]4[C@@]5(C)CC[C@H](O)C(C)(C)[C@@H]5CC[C@]43C)[C@@H]2C1 | 
26.2 µM | 58.3% | CC1(C)CC[C@]2(C(=O)OCc3nc(-c4ccccc4)no3)[C@H](O)C[C@]3(C)C(=CC[C@@H]4[C@@]5(C)CC[C@H](O)C(C)(C)[C@@H]5CC[C@]43C)[C@@H]2C1 | 
21.94 µM | 67.3% | CC1(C)CC[C@]2(C(=O)OCc3nnc(-c4ccc(Cl)cc4)o3)[C@H](O)C[C@]3(C)C(=CC[C@@H]4[C@@]5(C)CC[C@H](O)C(C)(C)[C@@H]5CC[C@]43C)[C@@H]2C1 | 
 |  | O=C(Cc1cccs1)N[C@@H]1C(=O)N2C(C(=O)O)=C(CSc3nc[nH]n3)CS[C@H]12 [CEFETRIZOLE] | Ki (Alpha-glucosidase [5]): 0.578 µM; IC50 (Alpha-glucosidase [6]): 2.1 µM
 |  | C[C@H]1O[C@H](O[C@H]2[C@H](O)[C@@H](O)[C@@H](O[C@H]3[C@H](O)[C@@H](O)C(O)O[C@@H]3CO)O[C@@H]2CO)[C@H](O)[C@@H](O)[C@@H]1N[C@H]1C=C(CO)[C@@H](O)[C@H](O)[C@H]1O (some centres not stated) | Activity (Mus musculus): Active
22.72 µM | 55.9% | CC1(C)CC[C@]2(C(=O)NCc3cn(-c4ccccc4)nn3)[C@H](O)C[C@]3(C)C(=CC[C@@H]4[C@@]5(C)CC[C@H](O)C(C)(C)[C@@H]5CC[C@]43C)[C@@H]2C1 | 
17.25 µM | 69.8% | CC1(C)CC[C@]2(C(=O)OCc3nnc(-c4ccc(Cl)c(Cl)c4)o3)[C@H](O)C[C@]3(C)C(=CC[C@@H]4[C@@]5(C)CC[C@H](O)C(C)(C)[C@@H]5CC[C@]43C)[C@@H]2C1 | 
> 30 µM | 47.7% | CC1(C)CC[C@]2(C(=O)NCc3cn(-c4ccc(F)cc4)nn3)[C@H](O)C[C@]3(C)C(=CC[C@@H]4[C@@]5(C)CC[C@H](O)C(C)(C)[C@@H]5CC[C@]43C)[C@@H]2C1 | 
21.25 µM | 63% | Cc1ccc(-n2cc(CNC(=O)[C@]34CCC(C)(C)C[C@H]3C3=CC[C@@H]5[C@@]6(C)CC[C@H](O)C(C)(C)[C@@H]6CC[C@@]5(C)[C@]3(C)C[C@H]4O)nn2)cc1 | 
> 30 µM | 48.5% | COc1ccc(-n2cc(CNC(=O)[C@]34CCC(C)(C)C[C@H]3C3=CC[C@@H]5[C@@]6(C)CC[C@H](O)C(C)(C)[C@@H]6CC[C@@]5(C)[C@]3(C)C[C@H]4O)nn2)cc1 | 
18.18 µM | 63.3% | CC1(C)CC[C@]2(C(=O)OCC(=O)NCc3cn(-c4ccc(Cl)cc4)nn3)[C@H](O)C[C@]3(C)C(=CC[C@@H]4[C@@]5(C)CC[C@H](O)C(C)(C)[C@@H]5CC[C@]43C)[C@@H]2C1 | 
18.52 µM | 61.5% | CC1(C)CC[C@]2(C(=O)OCC(=O)NCc3cn(-c4ccc(F)cc4)nn3)[C@H](O)C[C@]3(C)C(=CC[C@@H]4[C@@]5(C)CC[C@H](O)C(C)(C)[C@@H]5CC[C@]43C)[C@@H]2C1 | 

IC50 (Alpha-glucosidase [1]) | inhibition [2] | Compound | other results
21.19 µM | 69.2% | CC1(C)CC[C@]2(C(=O)NCc3cn(-c4ccc(Cl)cc4)nn3)[C@H](O)C[C@]3(C)C(=CC[C@@H]4[C@@]5(C)CC[C@H](O)C(C)(C)[C@@H]5CC[C@]43C)[C@@H]2C1 | 
29.32 µM | 56.9% | CC1(C)CC[C@]2(C(=O)OCCn3ncn(-c4ccc(F)cc4)c3=O)[C@H](O)C[C@]3(C)C(=CC[C@@H]4[C@@]5(C)CC[C@H](O)C(C)(C)[C@@H]5CC[C@]43C)[C@@H]2C1 | 
> 30 µM | 6.67% | COc1cc(-n2cc(CNC(=O)[C@]34CCC(C)(C)C[C@H]3C3=CC[C@@H]5[C@@]6(C)CC[C@H](O)C(C)(C)[C@@H]6CC[C@@]5(C)[C@]3(C)C[C@H]4O)nn2)cc(OC)c1OC | 
4.11 µM | 85.1% | CC1(C)CC[C@]2(C(=O)OCc3nc(-c4ccc(Cl)cc4)no3)[C@H](O)C[C@]3(C)C(=CC[C@@H]4[C@@]5(C)CC[C@H](O)C(C)(C)[C@@H]5CC[C@]43C)[C@@H]2C1 | selectivity ratio [3]: 26.4; CC50 at 24 h [4]: 108 µM
19.36 µM | 57.2% | CC1(C)CC[C@]2(C(=O)OCc3nnc(-c4ccccc4)o3)[C@H](O)C[C@]3(C)C(=CC[C@@H]4[C@@]5(C)CC[C@H](O)C(C)(C)[C@@H]5CC[C@]43C)[C@@H]2C1 | 
21.7 µM | 59.9% | CC1(C)CC[C@]2(C(=O)OCC(=O)NCc3cn(-c4ccccc4)nn3)[C@H](O)C[C@]3(C)C(=CC[C@@H]4[C@@]5(C)CC[C@H](O)C(C)(C)[C@@H]5CC[C@]43C)[C@@H]2C1 | 
> 30 µM | 36.5% | CC1(C)CC[C@]2(C(=O)OCc3nc(-c4ccc(Cl)c(Cl)c4)no3)[C@H](O)C[C@]3(C)C(=CC[C@@H]4[C@@]5(C)CC[C@H](O)C(C)(C)[C@@H]5CC[C@]43C)[C@@H]2C1 | 
> 30 µM | 49.1% | COc1cc(-c2nnc(COC(=O)[C@]34CCC(C)(C)C[C@H]3C3=CC[C@@H]5[C@@]6(C)CC[C@H](O)C(C)(C)[C@@H]6CC[C@@]5(C)[C@]3(C)C[C@H]4O)o2)cc(OC)c1OC | 
3.41 µM | 94.8% | COc1ccc(-c2noc(COC(=O)[C@]34CCC(C)(C)C[C@H]3C3=CC[C@@H]5[C@@]6(C)CC[C@H](O)C(C)(C)[C@@H]6CC[C@@]5(C)[C@]3(C)C[C@H]4O)n2)cc1 | selectivity ratio [3]: 11.3; CC50 at 24 h [4]: 38.5 µM
 |  | COc1ccc(NC(=O)Cn2cc(COc3cc(O)c4c(=O)c5ccc(OC)cc5oc4c3)nn2)c(OC)c1 | IC50 (Alpha-glucosidase [7]): 2.06 µM
 |  | COc1ccc(CC2(Cc3cn(-c4ccc(C)cc4)nn3)C(=O)OC(C)(C)OC2=O)cc1 | IC50 (Alpha-glucosidase [7]): 4.63 µM
22.28 µM | 56.5% | COc1ccc(-c2nnc(COC(=O)[C@]34CCC(C)(C)C[C@H]3C3=CC[C@@H]5[C@@]6(C)CC[C@H](O)C(C)(C)[C@@H]6CC[C@@]5(C)[C@]3(C)C[C@H]4O)o2)cc1 | 
23.62 µM | 68% | CC1(C)CC[C@]2(C(=O)OCC(=O)NCc3cn(-c4ccc(Br)cc4)nn3)[C@H](O)C[C@]3(C)C(=CC[C@@H]4[C@@]5(C)CC[C@H](O)C(C)(C)[C@@H]5CC[C@]43C)[C@@H]2C1 | 
> 30 µM | 51.4% | COc1ccc(-n2cc(CNC(=O)COC(=O)[C@]34CCC(C)(C)C[C@H]3C3=CC[C@@H]5[C@@]6(C)CC[C@H](O)C(C)(C)[C@@H]6CC[C@@]5(C)[C@]3(C)C[C@H]4O)nn2)cc1 | 
59.91 µM | 18.4% | CC1(C)CC[C@]2(C(=O)O)[C@H](O)C[C@]3(C)C(=CC[C@@H]4[C@@]5(C)CC[C@H](O)C(C)(C)[C@@H]5CC[C@]43C)[C@@H]2C1 | selectivity ratio [3]: 0.94; Activity (Mus musculus): Active; CC50 at 24 h [4]: 56.2 µM
3.4 µM | 87.3% | CC1(C)CC[C@]2(C(=O)OCC(=O)NCc3cn(-c4ccc(Cl)c(Cl)c4)nn3)[C@H](O)C[C@]3(C)C(=CC[C@@H]4[C@@]5(C)CC[C@H](O)C(C)(C)[C@@H]5CC[C@]43C)[C@@H]2C1 | selectivity ratio [3]: 58.3; CC50 at 24 h [4]: 198 µM
